Results reported in PMC11477877, “Carbohydrate-Binding Mechanism of the Coagulant Lectin from Moringa oleifera Seeds (cMoL) Is Related to the Dimeric Protein Structure” (Molecules, 2024).

Target: T1, cMoL (coagulant lectin from Moringa oleifera seeds) (Moringa oleifera, UniProt Z9EIH6G9R5)
T1 construct: native, purified from seeds (ammonium sulfate, guar gel column); 101 residues; homodimer
T1 sequence (Z9EIH6G9R5 1-101): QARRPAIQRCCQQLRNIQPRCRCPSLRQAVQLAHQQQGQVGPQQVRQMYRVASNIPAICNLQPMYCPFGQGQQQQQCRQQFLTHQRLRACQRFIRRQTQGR
Experiment: intrinsic fluorescence quenching, modified Stern-Volmer
Type: binding
Conditions: 298 K; water; excitation 280 nm; Hill h ~2 (dimer)
Excerpt: intrinsic fluorescence quenching, modified Stern-Volmer on cMoL (coagulant lectin from Moringa oleifera seeds)

Row | Compound | Ka (10^2 M^-1)
1 | OC[C@H]1OC(O)[C@H](O)[C@@H](O)[C@H]1O (some centres unmarked) [galactose] | 0.1239 ± 0.00004 10^2 M^-1
2 | OC[C@H]1OC(O)[C@H](O)[C@@H](O)[C@@H]1O (some centres unmarked) [glucose] | 0.2979 ± 0.00007 10^2 M^-1
